Measurements taken from publication PMC10196118, “Evidence for broad cross-reactivity of the SARS-CoV-2 NSP12-directed CD4^+ T-cell response with pre-primed responses directed against common cold coronaviruses” (Frontiers in Immunology, 2023).

Tested on: pre-cultured PBMCs (NSP12-specific T cells)
Experiment: IFN-γ ELISpot with single 15-mer peptides after 11–13 days in vitro peptide-pool T-cell expansion
Type: cell-based, human
Conditions: single NSP12 15-mer peptides; for peptide-specific response, donor HH-N12-18, post COVID-19 / peptide-specific response, donor HH-N12-34, post COVID-19 / peptide-specific response, donor HH-N12-35, post COVID-19 / peptide-specific response, donor HH-N12-36, post COVID-19 / peptide-specific response, donor HH-N12-37, post COVID-19: sample post COVID-19; for peptide-specific response, donor HH-N12-18, pre COVID-19 / peptide-specific response, donor HH-N12-34, pre COVID-19 / peptide-specific response, donor HH-N12-35, pre COVID-19 / peptide-specific response, donor HH-N12-36, pre COVID-19 / peptide-specific response, donor HH-N12-37, pre COVID-19: sample pre COVID-19

Sequence | peptide-specific response, donor HH-N12-18, post COVID-19 | peptide-specific response, donor HH-N12-18, pre COVID-19 | peptide-specific response, donor HH-N12-34, post COVID-19 | peptide-specific response, donor HH-N12-34, pre COVID-19 | peptide-specific response, donor HH-N12-35, post COVID-19 | peptide-specific response, donor HH-N12-35, pre COVID-19 | peptide-specific response, donor HH-N12-36, post COVID-19 | peptide-specific response, donor HH-N12-36, pre COVID-19 | peptide-specific response, donor HH-N12-37, post COVID-19 | peptide-specific response, donor HH-N12-37, pre COVID-19
VVKRHTFSNYQHEET [compound 15] | 0 | 0 | 0 | 0 | 0 | 0 | 0 | 0 | 0 | 0
KLFDRYFKYWDQTYH [compound 57] | 0 | 0 | 0 | 0 | 0 | 0 | 0.029 | 0 | 0 | 0
YFKYWDQTYHPNCVN [compound 58] | 0 | 0 | 0 | 0 | 0 | 0 | 0 | 0.041 | 0 | 0.11
RIMASLVLARKHTTC [compound 127] | 0 | 0.031 | 0 | 0 | 0 | 0.074 | 0 | 0 | 0 | 0.051
VYRAFDIYNDKVAGF [compound 7] | 0 | 0 | 0 | 0 | 0 | 0 | 0 | 0 | 0 | 0
QFCDAMRNAGIVGVL [compound 39] | 0 | 0 | 0 | 0 | 0 | 0 | 0 | 0 | 0 | 0
SADAQSFLNRVCGVS [compound 1] | 0 | 0 | 0 | 0 | 0 | 0 | 0.037 | 0 | 0 | 0
TPGSGVPVVDSYYSL [compound 46] | 0 | 0 | 0 | 0 | 0 | 0 | 0 | 0 | 0 | 0
LLKTVQFCDAMRNAG [compound 38] | 0 | 0 | 0 | 0 | 0 | 0 | 0 | 0 | 0 | 0
FQEKDEDDNLIDSYF [compound 12] | 0 | 0 | 0 | 0 | 0 | 0 | 0 | 0 | 0 | 0
HVDTDLTKPYIKWDL [compound 52] | 0 | 0 | 0 | 0 | 0 | 0 | 0 | 0 | 0.022 | 0
KDCPAVAKHDFFKFR [compound 19] | 0 | 0 | 0 | 0 | 0 | 0 | 0 | 0 | 0 | 0
WYDFGDFIQTTPGSG [compound 44] | 0 | 0 | 0 | 0 | 0 | 0 | 0 | 0 | 0 | 0.05
IYNLLKDCPAVAKHD [compound 18] | 0 | 0 | 0 | 0 | 0 | 0 | 0 | 0 | 0.023 | 0
